Patent US20140271734A1, “BILE ACID RECYCLING INHIBITORS FOR TREATMENT OF BARRETT'S ESOPHAGUS AND GASTROESOPHAGEAL REFLUX DISEASE” (LUMENA PHARMACEUTICALS, INC., priority 2013, published 2014)
Like-named read-outs stand apart in the source and are kept apart here. Marks after values point to notes of the source that are not given here.

Tests used:
[1] = Pharmacokinetics of LUM001 after oral solution and capsule in dogs; format: in vivo, Beagle dogs; settings: for Cmax / Tmax / AUC(0-t) / bioavailability: female, Beagle, dog, plasma; for Cmax / Tmax / AUC(0-t): po, 7.5 mg/kg; for AUC(0-t): read-out: AUC(0-24 h); for bioavailability: read-out: BA (bioavailability)
Experimental: Three fasted female Beagle dogs were administered LUM001 either as an oral solution at doses of 1 or 7.5 mg LUM001 free form/kg or in an oral capsule at a dose of 7.5 mg LUM001 free form/kg in a cross-over design. A dose of 7.5 mg LUM001 free form/kg was also administered as an oral solution to fed beagle dogs to evaluate the effect of food on plasma concentrations of LUM001.
Blood samples of approximately 3 mL was collected by venipuncture or indwelling catheter into chilled tubes containing heparin at the following timepoints: 0 (predose), 0.5, 1, 1.5, 2, 3, 5, 6, 8, 10, and 24 hours. The plasma samples were prepared by centrifugation of blood within 30 minutes after sample collection. All samples were stored at −20° C.±5° C. until analysis to study the relative exposures of LUM001 free form after capsule or oral solution dosing.

[2] = Body weight of hamsters, LUM001 for 28 days; format: in vivo, golden Syrian hamsters; settings: n=10
Experimental: Male golden Syrian hamsters (126-147 gm) were obtained from Charles Rivers Laboratories and were single housed in a constant temperature environment with alternating 12-hour light and dark cycles. Hamsters were fed Teklad 7001 rodent meal chow at libitum for two weeks before the experimental studies began and switched to Teklad 7001 rodent meal chow supplemented with 0.24% cholesterol on day one of the 28-day experiment. LUM001 was dissolved in an aqueous solution of 0.2% (w/v) Tween 80 and administered Q.D. by intragastric gavage between 9 a.m. and 10 a.m. each morning using a syringe fitted with a flexible feeding tube. Blood samples were collected after 14- and 28-day treatment periods by orbital sinus and cardiac puncture, respectively. Hamsters were anesthetized but not fasted prior to blood collections. Fecal samples were collected during a 48-hour period at the end of days 14 and 28 (i.e., days 13-14 and 27-28, respectively).

[3] = system: serum total bile acid (SBA); assay: Duration of action of LUM001 on dog SBA, Method 1 (two meals); format: in vivo, beagle dogs; settings: 0.2 mg/kg p.o. at 1 hr; full meal 0 hr, half meal 4 hr; 4.5 hr
Experimental: Male beagle dogs were obtained from Covance Research Products, Cumberland Va. or Marshall Farms USA, Inc., North Rose N.Y. A total of 20 dogs, 1 to 5 years old, 6.8 to 15.6 kg body weight, were used in these experiments. The dogs were conditioned to a 12 hour light/dark cycle and maintained on a feeding restriction of 1 hour per day access to food (Richman Standard Certified Canine Diet #5007, PMI Nutrition, Inc., St. Louis Mo.) from 7 to 8 AM. They were trained to eat a special meal promptly within 20 minutes when presented (1 can. 397 g, Evanger's 100% Beef for Dogs, Evanger's Dog and Cat Food Co., Inc., Wheeling Ill., mixed with 50 g of sharp cheddar cheese.).
SBA was measured by an enzymatic assay. SBA values are expressed as μg of total bile acids/ml of serum.
In dogs a single experimental meal produces a postprandial rise in SBA that is elevated to a peak at 1 hour after feeding and constant for an additional 3 hours. Previous experiments (2) indicate that LUM001 remains active for more than 4.5 hours. To measure the duration of action of an ASBT inhibitor using postprandial SBA levels requires that in the control situation the SBA levels remain elevated and constant for the entire period of compound action, or that the compound be administered long before the postprandial rise occurs, and remain active in the empty digestive system for long periods before feeding. […]

[4] = system: Aspartate Aminotransferase (ASAT); assay: Plasma aspartate aminotransferase in ZDF rats, week 3; format: in vivo; settings: twice daily oral gavage
[5] = system: fecal excretion of [14C]taurocholic acid (TCA); assay: Fecal excretion of [14C]taurocholic acid in hamsters, LUM002; format: in vivo, Syrian hamster; settings: oral gavage in two half doses, feces collected 24 hours, n=4 nonfasted hamsters per group
Experimental: To study the effect of LUM002 on fecal excretion of [^14C]taurocholic acid (TCA) in the Syrian hamster in vivo, [^14C]TCA was administered intraperitoneally 1 hour before dosing the test compound. Each animal was dosed with 1 μCi [^14C]TCA. LUM002 was dosed by oral gavage (5 mL/kg per administration) in either 5% (v/v) Solutol with 0.5% hydroxyethylcellulose (HEC) or 0.5% HEC alone. The first half of dose of test compound/vehicle was given 1 hour after [^14Cl]TCA injection, followed by the second half of dose 7 hours after the first dose of test compound/vehicle. Feces were collected for 24 hours after [^14Cl]TCA administration and aliquots from feces were combusted for determination of [^14Cl] excretion.
The ED200 (dose which doubles the fecal excretion of [^14Cl] label vs. control from dose response curve, including 95% Confidence interval) was calculated from a dose response curve.

[6] = oral capsule 7.5 mg/kg free form, fasted
[7] = oral solution 7.5 mg/kg free form, fed

SMILES: CCCCC1(CCCC)CS(=O)(=O)c2ccc(N(C)C)cc2[C@@H](c2ccc(OCc3ccc(C[N+]45CCN(CC4)CC5)cc3)cc2)[C@H]1O [LUM001]
- Cmax [1, 6]: 4.24 ng/mL
- Tmax [1, 6]: 5 h
- AUC(0-t) [1, 6]: 33.7 ng·h/mL
- Cmax [1, 7]: 1.28 ng/mL
- Tmax [1, 7]: 0.5 h
- AUC(0-t) [1, 7]: 3.9 ng·h/mL
- bioavailability [1, 6]: < 0.1%
- bioavailability ([1]; oral solution 1 mg/kg free form, fasted): < 0.1%
- BA (bioavailability) ([1]; oral solution 7.5 mg/kg free form, fasted): <0.1%
- BA (bioavailability) [1, 7]: <0.1%
- Body Weight (BW) ([2]; 5 mg/kg/day): 130 g
- Body Weight (BW) ([2]; 15 mg/kg/day): 136 g
- Body Weight (BW) ([2]; 50 mg/kg/day): 130 g
- Serum Bile Acid, mean [3]: 2.5* μg/ml

SMILES: CCCC[C@]1(CC)CS(=O)(=O)c2ccc(N(C)C)cc2[C@@H](c2cccc(NC(=O)N[C@@H]3O[C@H](COS(=O)(=O)[O-])[C@@H](O)[C@H](OCc4ccccc4)[C@H]3O)c2)[C@H]1O.CCO.O.[K+] [LUM002, potassium((2R,3R,4S,5R,6R)-4-benzyloxy-6-{3-[3-((3S,4R,5R)-3-butyl-7-dimethylamino-3-ethyl-4-hydroxy-1,1-dioxo-2,3,4,5-tetrahydro-1H-benzo[b]thiepin-5-yl)-phenyl]-ureido}-3,5-dihydroxy-tetrahydro-pyran-2-ylmethyl)sulphate ethanolate, hydrate]
- Plasma aspartate aminotransferase (ASAT) [4]: statistically significant reduction in ASAT
- Fecal excretion of bile acids ([14C]TCA label) [5]: significantly increased fecal excretion of bile acids
